As usually defined, the Dmax is the largest share of the target that was removed.

Structures are written as SMILES. “Also recorded” adds a separate entry of the source. Like-named read-outs stand apart in the source and are kept apart here.

These results are taken from paper PMC10108347, “Heterobifunctional Ligase Recruiters Enable pan-Degradation of Inhibitor of Apoptosis Proteins” (Journal of Medicinal Chemistry, 2023).

Data set [1] has as its target T1, plasma protein (HSA column) (Homo sapiens, UniProt P02768).
T1 construct: purchased
Kind of data set: Plasma protein binding estimated by HPLC on a […] HSA column. The format is in vitro ADME. To be noted: CHIRALPAK HSA column (50 × 3 mm, 5 μm), estimated by an HPLC-based method, read-out: PPB (plasma protein binding) (converted). The gist of the method: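 % PPB was estimated from log retention time on an HSA column (50 × 3 mm, 5 μm, 30 °C), calibrated against log K of literature-PPB reference drugs. Samples were eluted with 50 mM ammonium acetate pH 7.4 and an iPrOH gradient to 30%, with UV detection at 254 nm.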

Data set [2] deals with XIAP (Homo sapiens, UniProt P98170). Kind of data set: Immunoblotting (western blot) quantification of XIAP levels in MM.1S cells. Also on record: Dmax: dose or concentration left out as unconfirmed. On the technique in general: Immunoblotting shows a protein as a band on a membrane.
XIAP, sequence (P98170 whole entry): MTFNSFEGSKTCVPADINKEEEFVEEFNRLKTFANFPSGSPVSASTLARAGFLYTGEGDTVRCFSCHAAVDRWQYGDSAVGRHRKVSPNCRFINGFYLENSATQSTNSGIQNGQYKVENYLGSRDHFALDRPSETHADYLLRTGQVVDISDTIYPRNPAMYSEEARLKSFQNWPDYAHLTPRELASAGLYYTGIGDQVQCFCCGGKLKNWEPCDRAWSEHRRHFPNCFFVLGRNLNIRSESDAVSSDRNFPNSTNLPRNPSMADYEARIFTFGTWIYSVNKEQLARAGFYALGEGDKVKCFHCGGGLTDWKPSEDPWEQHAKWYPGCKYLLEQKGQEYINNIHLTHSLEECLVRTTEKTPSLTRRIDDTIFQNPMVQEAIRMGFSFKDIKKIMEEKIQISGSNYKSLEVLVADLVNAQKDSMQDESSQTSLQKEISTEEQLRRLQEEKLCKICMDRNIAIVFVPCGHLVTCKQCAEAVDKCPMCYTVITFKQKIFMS
Method: (§1) To evaluate the capability of our panel of hetero-PROTACs for E3 ligase degradation, VHL19, VHL30, CRBN, cIAP1, cIAP2, and XIAP levels were quantified by western blot analyses. […] SDS-PAGE was performed, and proteins were then transferred onto PVDF membranes. Blotted membranes were blocked with 5% milk in Tris-buffered saline/Tween20 (TBST). Primary antibodies were diluted in 5% BSA in TBST, and incubations were performed overnight at 4 °C. Secondary HRP-conjugated antibodies diluted in 5% milk were incubated for 1 h at room temperature. Detection of proteins on PVDF was carried out using the WesternBright ECL HRP substrate or the WesternBright Sirius HRP substrate (Advansta, San Jose, USA) and imaged with LAS 4000× (Fujifilm). Membranes were subjected to 10 min incubation with Restore Western Blot Stripping Buffer (Thermo Fisher Scientific, Waltham, USA), followed by TBST washes. After brief re-activation with methanol, the membranes were blocked, and further probing of proteins was carried out.
(§2) Quantification of blots was performed using ImageJ software (National Institutes of Health).
The target in data set [3] is VHL30 (Homo sapiens, UniProt P40337). Kind of data set: Immunoblotting (western blot) quantification of VHL30 levels in MM.1S cells.
VHL30, sequence (P40337 whole entry): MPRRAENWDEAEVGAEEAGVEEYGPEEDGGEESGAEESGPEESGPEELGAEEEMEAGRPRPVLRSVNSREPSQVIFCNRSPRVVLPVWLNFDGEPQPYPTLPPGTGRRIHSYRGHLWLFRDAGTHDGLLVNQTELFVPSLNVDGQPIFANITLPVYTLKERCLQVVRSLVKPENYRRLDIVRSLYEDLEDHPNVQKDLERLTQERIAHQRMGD
For data set [4], the target named is VHL19 (Homo sapiens, UniProt P40337). Kind of data set: Immunoblotting (western blot) quantification of VHL19 levels in MM.1S cells. To be noted: 16 h, 1 μM.
VHL19, sequence (P40337 54-213): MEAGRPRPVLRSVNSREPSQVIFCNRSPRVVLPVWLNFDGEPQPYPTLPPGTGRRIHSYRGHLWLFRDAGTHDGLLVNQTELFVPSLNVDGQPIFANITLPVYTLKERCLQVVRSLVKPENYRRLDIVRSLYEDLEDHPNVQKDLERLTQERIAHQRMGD
Method: as §1, §2
Data set [5] deals with CRBN (Homo sapiens, UniProt Q96SW2). Kind of data set: Immunoblotting (western blot) quantification of CRBN levels in MM.1S cells. The settings on record: MM1.S, 16 h, read-out: %remaining protein CRBN.
CRBN, sequence (Q96SW2 whole entry): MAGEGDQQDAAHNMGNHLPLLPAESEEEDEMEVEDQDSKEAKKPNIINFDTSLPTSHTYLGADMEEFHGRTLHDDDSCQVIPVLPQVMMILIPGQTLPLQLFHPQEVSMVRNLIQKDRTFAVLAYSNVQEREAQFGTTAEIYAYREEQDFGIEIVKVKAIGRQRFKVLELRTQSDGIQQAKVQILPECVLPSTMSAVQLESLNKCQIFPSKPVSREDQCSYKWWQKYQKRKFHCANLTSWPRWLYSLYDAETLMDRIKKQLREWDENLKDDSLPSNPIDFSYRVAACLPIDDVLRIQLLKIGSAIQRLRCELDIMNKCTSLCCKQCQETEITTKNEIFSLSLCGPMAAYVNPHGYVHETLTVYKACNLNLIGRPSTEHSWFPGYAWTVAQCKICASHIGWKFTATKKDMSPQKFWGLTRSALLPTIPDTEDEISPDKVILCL
Method: as §1, §2
The test system of data set [6] is IKZF3. Kind of data set: Immunoblotting (western blot) quantification of IKZF3 levels in MM.1S cells. The settings on record: for %remaining protein IKZF3: 16 h treatment at 0.1 μM, normalized to loading control and DMSO.
The mark [7] stands for this setting: MM1.S, 16 h, read-out: %remaining protein XIAP, MM.1S cells, 16 h treatment at 0.1 μM, normalized to loading control and DMSO.

T1 sequence (P02768 25-609): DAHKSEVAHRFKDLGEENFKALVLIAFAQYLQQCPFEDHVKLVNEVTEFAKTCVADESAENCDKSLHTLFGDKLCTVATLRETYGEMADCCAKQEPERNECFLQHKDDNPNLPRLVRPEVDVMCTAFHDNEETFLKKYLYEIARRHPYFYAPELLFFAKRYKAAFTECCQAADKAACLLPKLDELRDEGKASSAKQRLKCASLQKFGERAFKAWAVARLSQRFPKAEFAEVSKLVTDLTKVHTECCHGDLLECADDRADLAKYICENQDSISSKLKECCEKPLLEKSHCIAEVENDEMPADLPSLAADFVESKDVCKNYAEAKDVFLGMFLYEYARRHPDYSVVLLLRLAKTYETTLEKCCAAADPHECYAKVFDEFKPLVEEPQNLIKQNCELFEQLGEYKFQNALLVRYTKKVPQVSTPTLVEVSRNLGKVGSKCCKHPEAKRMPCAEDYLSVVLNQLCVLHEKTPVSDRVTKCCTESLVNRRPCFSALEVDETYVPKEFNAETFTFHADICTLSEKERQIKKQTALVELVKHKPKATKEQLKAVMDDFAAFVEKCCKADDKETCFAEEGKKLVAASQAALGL

As to `CN[C@@H](C)C(=O)N[C@@H](C(=O)N1CCC[C@H]1C(=O)N[C@@H]1c2ccccc2C[C@@H]1OCC#CC#CCO[C@H]1Cc2ccccc2[C@H]1NC(=O)[C@@H]1CCCN1C(=O)[C@H](NC(=O)[C@H](C)NC)C1CCCCC1)C1CCCCC1` [AZD5582, reference compound], the fraction unbound at 0.5 mg/mL in data set [1] is 0.06. Besides, the “XIAP degradation (in words)” value in data set [2] (MM.1S cells, 16 h, western blot, 0.1 or 1 μM) was “failed to degrade XIAP; also recorded: did not influence XIAP levels even at 1 μM”.

`CN[C@@H](C)C(=O)N[C@H](C(=O)N1C[C@@H](Oc2cccc(OCCCCC(=O)N[C@H](C(=O)N3C[C@H](O)C[C@H]3C(=O)N[C@@H](C)c3ccc(-c4scnc4C)cc3)C(C)(C)C)c2)C[C@H]1C(=O)N[C@@H]1CCCc2ccccc21)C1CCCCC1` [PROTAC 9, (2S,4S)-1-((S)-2-Cyclohexyl-2-((S)-2-(methylamino)propanamido)acetyl)-4-(3-((5-(((S)-1-((2S,4R)-4-hydroxy-2-(((S)-1-(4-(4-methylthiazol-5-yl)phenyl)ethyl)carbamoyl)pyrrolidin-1-yl)-3,3-dimethyl-1-oxobutan-2-yl)amino)-5-oxopentyl)oxy)phenoxy)-N-((R)-1,2,3,4-tetrahydronaphthalen-1-yl)pyrrolidine-2-carboxamide]: the remaining activity at 0.1 µM in data set [2] (setting [7]) is 7%; in data set [3] (MM1.S, 16 h, read-out: %remaining protein VHL30, MM.1S cells, 16 h treatment at 0.1 μM, normalized to loading control and DMSO) it was 9%. In addition, in data set [2] (MM1.S, read-out: Dmax XIAP (maximum degradation), MM.1S cells, 16 h), the Dmax turned out to be 99%. Further, the “Dmax XIAP (maximum degradation)” value in data set [2] (MM.1S cells, 16 h, at 0.1 μM) was greater than 99%. In data set [2] (read-out: DC50,16h XIAP, MM.1S cells, 16 h, densitometric quantification of western blots, n = 4), the DC50 stood at 0.7 nM. Moreover, in data set [3] (MM.1S cells, western blot), the “VHL30 degradation (in words)” value is “most pronounced after 6 h of treatment”. In addition, the “remaining VHL19” value in data set [4] was 24%.

For the molecule `CN[C@@H](C)C(=O)N[C@H](C(=O)N1C[C@@H](Oc2cccc(OCCOCCCCCCOCCCCCCNc3cccc4c3C(=O)N(C3CCC(=O)NC3=O)C4=O)c2)C[C@H]1C(=O)N[C@@H]1CCCc2ccccc21)C1CCCCC1` (stereo partly drawn) [PROTAC 25, (2S,4S)-1-((S)-2-Cyclohexyl-2-((S)-2-(methylamino)propanamido)acetyl)-4-(3-(2-((6-((6-((2-(2,6-dioxopiperidin-3-yl)-1,3-dioxoisoindolin-4-yl)amino)hexyl)oxy)hexyl)oxy)ethoxy)phenoxy)-N-((R)-1,2,3,4-tetrahydronaphthalen-1-yl)pyrrolidine-2-carboxamide], the remaining activity at 0.1 µM in data set [2] (MM1.S, 16 h, read-out: %remaining protein XIAP) turned out to be 2%; in data set [5], 91%. The “IKZF3 degradation (in words)” value in data set [6] (16 h, 1 μM) was “substantial IKZF3 degradation at 1 μM”. For the same molecule, the “%remaining protein IKZF3” value in data set [6] was 95%.

With `CN[C@@H](C)C(=O)N[C@H](C(=O)N1C[C@@H](Oc2cccc(OCCCCCCOCCCCCCOCCCCCCNc3cccc4c3C(=O)N(C3CCC(=O)NC3=O)C4=O)c2)C[C@H]1C(=O)N[C@@H]1CCCc2ccccc21)C1CCCCC1` (stereo partly drawn) [PROTAC 27, (2S,4S)-1-((S)-2-Cyclohexyl-2-((S)-2-(methylamino)propanamido)acetyl)-4-(3-((6-((6-((6-((2-(2,6-dioxopiperidin-3-yl)-1,3-dioxoisoindolin-4-yl)amino)hexyl)oxy)hexyl)oxy)hexyl)oxy)phenoxy)-N-((R)-1,2,3,4-tetrahydronaphthalen-1-yl)pyrrolidine-2-carboxamide], the remaining activity at 0.1 µM amounted to 8% in data set [2] (setting [7]) and 95% in data set [5]. Besides, in data set [6], the “%remaining protein IKZF3” value was determined as 95%.
